Experimental data from paper PMC9501129 (Pharmaceutics, 2022).
Where two headings read alike, the source gives them in different places.

Assays:
[1] = Maternal plasma drug concentration in mouse pregnancy model (HPLC-MSMS); assay type: in vivo, C57BL/6J mice; conditions: pregnant mice, mean (SD), n=2; for concentration at 24 h / Cmax at 1 h: female, C57BL/6J, mouse, plasma; for concentration at 24 h: oral, read-out: Plasma Concentration 24 h (Cmin)
Description: All animal experiments were approved by the University Health Network Animal Use Committee (protocol #2575) and performed according to the policies and guidelines of the Canadian Council on Animal Care. C57BL/6J mice bred in-house (original breeders from Jackson Laboratory RRID:IMSR JAX:000664) were maintained under a 12-h light/dark cycle, with ad libitum access to food and water. Animals were acclimated to their surroundings for 1 week prior to experiment initiation. Males were isolated for 7 days prior to mating. Female mice (7–12 weeks of age) were mated with males at a ratio of 2:1. Presence of vaginal plug was denoted as gestational day 0.5 (GD0.5). Pregnancy was confirmed by weight gain of >1.5 g on GD9.5 and >3 g on GD13.5. […] The equivalent mouse mg/kg dose was calculated based on the human dose divided by an assumed average human weight of 60 kg. The dose of TDF/FTC was kept constant across the different dosages of BIC and CAB. On GD15.5, mice underwent saphenous bleed 24 h after the GD14.5 dose administration (trough). Immediately after the saphenous bleed, mice were dosed with the appropriate drug regimen and sacrificed 1 h post-treatment (peak), at which time blood was collected by cardiac puncture and amniotic fluid was collected by dissecting the uterus, puncturing the amniotic sac, and draining the amniotic fluid into a sterile dish. Amniotic fluid was pooled for the entire litter. Samples from 2 dams per arm were analyzed for drug levels.
BIC and CAB levels in plasma and amniotic fluid were determined using a validated, simultaneous assay using high-performance liquid chromatography coupled with tandem mass spectrometry (HPLC-MSMS). Briefly, 50 μL of plasma or amniotic fluid was spiked with internal standard (ritonavir-d6) followed by protein precipitation with acetonitrile and filtration. Filtrates were diluted 1:9 with ammonium acetate buffer (10 mM) and analyzed by the HPLC-MSMS system, consisting of a Shimadzu Nexera XR high-performance liquid chromatograph (Shimadzu, Columbia, MD, USA) coupled with a SCIEX API 4500 QqQ mass spectrometer (SCIEX, Concord, ON, Canada). Chromatographic separation by Mobile Phase A (10% methanol, 5% 50 mM ammonium acetate, 85% 0.25% acetic acid pH 3.6 ± 0.2) and Mobile Phase B (90% methanol, 5% 50 mM ammonium acetate, 5% 0.25% acetic acid pH 6.6 ± 0.2) was performed under linear gradient conditions (flow rate 0.7 mL/min) on a reverse-phase Zorbax XDB-C18 column (Agilent Technologies, Santa Clara, CA, USA) maintained at 40 °C. […] HPLC-MSMS data were acquired using Analyst (v 1.6.3, SCIEX, Concord, ON, Canada) and analyzed with MultiQuant software (v 3.0.3, SCIEX, Concord, ON, Canada). […] No peaks were detected in blank mouse plasma at the retention time with the specific ion settings for each compound. […] Positive controls spiked in-house and prepared by an external laboratory during a sample exchange program were included in all runs.

pregnant rabbits = conditions: CAB orally 0, 30, 500, or 2000 mg/kg/day, gestational day 7 to 19; cited from earlier work
[2] = ex-vivo dually perfused human cotyledon; cited from earlier work
[3] = cited from earlier work
[4] = CAB 0.5 mg/kg (1×) oral gavage once daily GD11.5-GD15.5 with TDF 50 mg/kg + FTC 33.3 mg/kg
[5] = CAB 1.5 mg/kg (3×) oral gavage once daily GD11.5-GD15.5 with TDF 50 mg/kg + FTC 33.3 mg/kg
[6] = CAB 5 mg/kg (10×) oral gavage once daily GD11.5-GD15.5 with TDF 50 mg/kg + FTC 33.3 mg/kg
[7] = of 13 pregnant women living with HIV (4 oral CAB, 9 LA CAB)

Q: For `C[C@H]1CO[C@@H]2Cn3cc(C(=O)NCc4ccc(F)cc4F)c(=O)c(O)c3C(=O)N12` [CAB, cabotegravir], which concentration at 24 h [1, 4] is on record?
A: Its concentration at 24 h is 260 ng/mL.

Q: What about the concentration at 24 h [1, 5] of the same compound?
A: The concentration at 24 h was 480 ng/mL.

Q: What about the concentration at 24 h [1, 6] of the same compound?
A: Its concentration at 24 h is roughly 1300 ng/mL.

Q: And the Cmax at 1 h [1, 4]?
A: The Cmax at 1 h was 913 ng/mL.

Q: What about the Cmax at 1 h [1, 5] of the same compound?
A: Its Cmax at 1 h is 1270 ng/mL.

Q: What about the Cmax at 1 h [1, 6] of the same compound?
A: Its Cmax at 1 h is 3580 ng/mL.

Q: What about the “Plasma Concentration 24 h (Cmin)” value [1, 6] of the same compound?
A: Its value is 1306 (402) ng/mL.

Q: What about the Fetal toxicities (pregnant rabbits) of the same compound?
A: The Fetal toxicities was “no drug-related fetal toxicities”.

Q: What about the “Concentration in the fetal compartment” value [2] of the same compound?
A: The value was 48 ng/mL.

Q: And the “Concentration in the maternal compartment” value [2]?
A: Its value is 550 ng/mL.

Q: What about the Maternal-to-fetal ratio [2] of the same compound?
A: Its Maternal-to-fetal ratio is 10%.

Q: And the Placental transfer [2]?
A: The Placental transfer was “low placental transfer”.

Q: And the Birth defects ([3]; 13 pregnant women living with HIV (4 oral CAB, 9 LA CAB))?
A: The Birth defects was “No cases of birth defects were reported”.

Q: What about the “Women with live births” value [3, 7] of the same compound?
A: The value was “Four”.

Q: And the “Women with miscarriage within the first nine weeks of gestation” value [3, 7]?
A: The value was “four”.
